Measured values reported in patent publication US7326721B2 (Hypnion, Inc., priority 2003, dated 2008).
Values joined by “and” are separate entries in the source; they are usually repeats but may differ in a detail not shown here. Identical values can stand only once.

Experiments:
[1] = target: Cholecystokinin, CCK1 (CCKA) (Homo sapiens, UniProt P32238); assay: Table 12 panel: CCK1; conditions: 1.0E−6, average N=2, read-out: percentage inhibition of specific binding
From the text: (§1) The percentage inhibition (average; N=2) for these receptors is shown below in Table 12.
(§2) Values in Table 12 are expressed as percentage inhibition of specific binding, and these values represent the average of replicate tubes at each of the concentrations tested.

[2] = tested on: Serotonin, Non-selective; assay: Table 12 panel: Serotonin, Non-selective; format: binding; conditions: 1.0E−6, average N=2
From the text: as §1, §2

[3] = target: Cholecystokinin, CCK2 (CCKB) (Homo sapiens, UniProt P32239); assay: Table 12 panel: CCK2; conditions: 1.0E−6, average N=2, read-out: percentage inhibition of specific binding
From the text: as §1, §2

[4] = tested on: Potassium Channel, Ca2+ Act., VI; assay: Table 12 panel: Potassium Channel, Ca2+ Act.; format: binding; conditions: 1.0E−6, average N=2
From the text: as §1, §2

[5] = tested on: Glutamate, NMDA Agonist Site; assay: Table 12 panel: Glutamate, NMDA Agonist; format: binding; conditions: 1.0E−6, average N=2
From the text: as §1, §2

[6] = tested on: Muscarinic, Non-selective, Central; assay: Table 12 panel: Muscarinic, Central; format: binding; conditions: 1.0E−6, average N=2
From the text: as §1, §2

[7] = target: Neurokinin, NK1 (Homo sapiens, UniProt P25103); assay: Table 12 panel: NK1; conditions: 1.0E−6, average N=2, read-out: percentage inhibition of specific binding
From the text: as §1, §2

[8] = target: T1, Orphenin (hr) (Homo sapiens, UniProt P41146); assay: Table 12 panel: Orphenin; conditions: 1.0E−6, average N=2, read-out: percentage inhibition of specific binding
T1 construct: expressed in transfected cells
From the text: as §1, §2

[9] = target: GABA-B (Homo sapiens, UniProt Q9UBS5); assay: Table 12 panel: GABA-B; conditions: 1.0E−6, average N=2, read-out: percentage inhibition of specific binding
From the text: as §1, §2

[10] = target: Oxidase, MAO-B, Peripheral (Homo sapiens, UniProt P27338); assay: Table 12 panel: MAO-B; format: biochemical; conditions: 1.0E−6, average N=2
From the text: as §1, §2

[11] = tested on: CYP 3A; assay: Cytochrome P450 inhibition: CYP 3A; format: in vitro ADME; conditions: human microsomal preparation
Method: Cytochrome P450 inhibition was studied with HY2901 in vitro. […] In addition, the in vitro rate of metabolism in rat, dog, monkey, and human hepatocyte cultures was determined for HY2901.

[12] = tested on: Wistar rats; assay: Acetic acid-induced abdominal spasm test in the rat; format: in vivo
Method: The objective of this example was to determine the analgesic activity of HY-2901 (Also referred to herein as Compound 49a) following oral administration. Analgesic activity was assessed abdominal spasm test in the rat and mouse. Analgesic activity is also assessed using the tail clip test in the mouse, tail flick test in the rat, Randall-Selitto test in the rat and comparisons are made with a vehicle control group. Reference compounds ASA (acetylsalicylic acid) and morphine are also included for comparison.
The tail clip and tail flick test provide useful information about the central analgesic activity of the test article. The Randall-Selitto test provides information on the compound's ability to modify a hyperalgesic state and the abdominal spasm test provides information on the peripheral analgesic activity of the test article. The test article is administered by oral gavage, this being the intended clinical route of administration. The dose levels employed are expected to encompass the efficacy dose and provide an adequate safety margin.
All formulations were prepared on each day of dosing. The test article (HY-2901) was formulated in 0.25% (w/v) MC at the highest concentration required. Lower doses were obtained by serial dilution of the highest concentration using 0.25% (w/v) MC. The reference compound, acetylsalicylic acid, was formulated in 0.25% (w/v) MC at the required concentrations. Brewer's yeast was formulated in water for injection at the required concentration. Acetic acid was diluted with water for injection to provide the required concentration for administration.
An adequate number of male Crl:CD-I(ICR)BR mice and Wistar rats were obtained from Charles River (UK) Ltd., Margate, Kent. The mice were approximately 4 weeks of age and weigh between 18 and 22 g on arrival. The rats were approximately 5 weeks of age and weigh between 150 and 170 g on arrival. The age and weight of the animals at the start of the study was documented in the raw data and final report,
Each animal received a single administration of vehicle, test article or reference compound by oral gavage, using a constant dose volume […]. Individual dose volumes were based on individual body weights obtained on the day of dosing.
Forty-five minutes following oral administration each animal received a 1 mL intraperitoneal injection of 1% acetic acid. Animals were immediately placed into individual observation chambers and the number of abdominal spasms elicited over the subsequent 25-minute period was recorded.

[13] = Plasma pharmacokinetics in rats; format: in vivo, rat
From the text: The following pharmacokinetic parameters are computed from the individual plasma concentrations of the modified antihistamine compound using a noncompartmental approach and appropriate validated pharmacokinetic software (e.g., WinNonlin Professional). Concentration values reported as BLQ are set to zero. If concentration data are available, interim calculations are done (non-QC.d data) between periods if possible.
Dose proportionality following study medication is explored by analyzing natural log-transformed pharmacokinetic variables AUC(0-t), AUC(0-inf), and Cmax with a linear model including the natural log-transformed dose as covariates. Dose proportionality is concluded if the 95% confidence interval for the slope of the covariate includes the value of 1. Dose linearity for AUC(0-t), AUC(0-inf), and Cmax is also explored by a linear model. See, e.g., Gibaldi and Perrier, Pharmacokinetics, Second Ed., Marcel Dekker: New York, N.Y. (1982). Nominal sample collection times were used in calculations, except where actual sampling times fell outside the protocol-specified acceptable time ranges. The following parameters were estimated: • Cmax Maximum plasma concentration. • Tmax Time to maximum concentration. • Cmax and Tmax were reported directly from the concentration-time data. • AUC0-T Area under the plasma concentration-time curve from time […] to the last time point with measurable concentrations, estimated bylinear trapezoidal rule. • AUC0-00 Area under the plasma concentration-time curve extrapolated to infinity, calculated using the formula: AUC0-00=AUC0-1+C0/λ0 • Where Ct is the last measurable concentration in plasma and λz is the terminal phase elimination rate constant estimated using log-linear regression during the terminal elimination phase. The number of points used in λz calculation was determined by visual inspection of the data describing the terminal phase. At lest the last three time points with measurable values were used in λz calculation. […]

T1 sequence (P41146 whole entry): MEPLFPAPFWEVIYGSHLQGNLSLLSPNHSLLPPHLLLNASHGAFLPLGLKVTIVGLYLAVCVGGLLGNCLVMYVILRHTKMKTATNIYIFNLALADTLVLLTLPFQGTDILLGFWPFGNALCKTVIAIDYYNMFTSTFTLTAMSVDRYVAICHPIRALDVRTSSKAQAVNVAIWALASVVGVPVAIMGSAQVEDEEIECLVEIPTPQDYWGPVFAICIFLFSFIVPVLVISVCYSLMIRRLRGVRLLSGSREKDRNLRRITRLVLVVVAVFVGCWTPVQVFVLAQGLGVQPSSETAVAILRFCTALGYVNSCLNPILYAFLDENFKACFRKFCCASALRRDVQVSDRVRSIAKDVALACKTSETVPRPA
GABA-B, sequence (Q9UBS5 15-961 limits assumed): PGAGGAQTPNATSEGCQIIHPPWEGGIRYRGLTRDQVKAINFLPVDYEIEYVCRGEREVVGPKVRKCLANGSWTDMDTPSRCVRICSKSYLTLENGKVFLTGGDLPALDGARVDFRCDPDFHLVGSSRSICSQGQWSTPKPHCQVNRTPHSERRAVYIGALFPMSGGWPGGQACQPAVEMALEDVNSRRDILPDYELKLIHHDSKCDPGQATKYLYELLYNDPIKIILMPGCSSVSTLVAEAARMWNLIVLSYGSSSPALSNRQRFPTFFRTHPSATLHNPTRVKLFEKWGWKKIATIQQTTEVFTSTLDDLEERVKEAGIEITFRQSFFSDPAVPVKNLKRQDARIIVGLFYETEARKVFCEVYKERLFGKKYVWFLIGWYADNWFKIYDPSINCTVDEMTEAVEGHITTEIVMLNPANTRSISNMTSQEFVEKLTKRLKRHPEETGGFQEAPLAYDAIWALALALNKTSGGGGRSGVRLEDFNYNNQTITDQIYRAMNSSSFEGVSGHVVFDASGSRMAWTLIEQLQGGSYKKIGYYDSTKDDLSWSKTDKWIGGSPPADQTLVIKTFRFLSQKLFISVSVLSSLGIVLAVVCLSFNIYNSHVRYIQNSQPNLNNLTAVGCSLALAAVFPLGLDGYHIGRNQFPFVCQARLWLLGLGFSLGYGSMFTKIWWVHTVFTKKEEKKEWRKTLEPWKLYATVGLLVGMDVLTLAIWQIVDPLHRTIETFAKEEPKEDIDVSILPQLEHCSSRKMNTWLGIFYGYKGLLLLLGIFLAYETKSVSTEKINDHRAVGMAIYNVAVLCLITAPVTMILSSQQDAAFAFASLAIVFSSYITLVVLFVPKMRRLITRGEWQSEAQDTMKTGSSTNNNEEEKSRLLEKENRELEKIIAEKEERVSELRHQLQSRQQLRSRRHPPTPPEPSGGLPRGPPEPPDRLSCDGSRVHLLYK
GABA-B, sequence (O75899 42-941 partner): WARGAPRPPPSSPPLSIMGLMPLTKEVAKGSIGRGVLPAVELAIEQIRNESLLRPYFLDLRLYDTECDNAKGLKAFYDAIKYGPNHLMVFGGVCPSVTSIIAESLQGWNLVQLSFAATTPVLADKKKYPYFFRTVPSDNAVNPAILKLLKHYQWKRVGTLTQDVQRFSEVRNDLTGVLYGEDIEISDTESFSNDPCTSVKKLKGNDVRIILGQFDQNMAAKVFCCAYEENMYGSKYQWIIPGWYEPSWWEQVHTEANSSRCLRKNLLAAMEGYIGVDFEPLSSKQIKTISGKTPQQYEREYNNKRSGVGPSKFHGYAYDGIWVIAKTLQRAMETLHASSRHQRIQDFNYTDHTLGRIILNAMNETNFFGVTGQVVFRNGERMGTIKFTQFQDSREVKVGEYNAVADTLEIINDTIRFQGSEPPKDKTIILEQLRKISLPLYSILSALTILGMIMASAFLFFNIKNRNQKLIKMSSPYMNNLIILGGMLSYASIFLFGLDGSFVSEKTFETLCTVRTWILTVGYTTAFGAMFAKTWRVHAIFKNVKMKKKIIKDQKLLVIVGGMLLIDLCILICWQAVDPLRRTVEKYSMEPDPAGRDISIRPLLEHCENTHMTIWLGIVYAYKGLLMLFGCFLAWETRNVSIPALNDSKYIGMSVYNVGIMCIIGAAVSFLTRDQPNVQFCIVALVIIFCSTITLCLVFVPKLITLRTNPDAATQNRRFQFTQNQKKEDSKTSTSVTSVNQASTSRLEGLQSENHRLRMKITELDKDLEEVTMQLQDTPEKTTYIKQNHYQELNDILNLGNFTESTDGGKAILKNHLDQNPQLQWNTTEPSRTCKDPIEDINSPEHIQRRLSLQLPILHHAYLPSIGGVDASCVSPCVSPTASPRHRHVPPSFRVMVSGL
Cholecystokinin, CCK2 (CCKB), sequence (P32239 whole entry): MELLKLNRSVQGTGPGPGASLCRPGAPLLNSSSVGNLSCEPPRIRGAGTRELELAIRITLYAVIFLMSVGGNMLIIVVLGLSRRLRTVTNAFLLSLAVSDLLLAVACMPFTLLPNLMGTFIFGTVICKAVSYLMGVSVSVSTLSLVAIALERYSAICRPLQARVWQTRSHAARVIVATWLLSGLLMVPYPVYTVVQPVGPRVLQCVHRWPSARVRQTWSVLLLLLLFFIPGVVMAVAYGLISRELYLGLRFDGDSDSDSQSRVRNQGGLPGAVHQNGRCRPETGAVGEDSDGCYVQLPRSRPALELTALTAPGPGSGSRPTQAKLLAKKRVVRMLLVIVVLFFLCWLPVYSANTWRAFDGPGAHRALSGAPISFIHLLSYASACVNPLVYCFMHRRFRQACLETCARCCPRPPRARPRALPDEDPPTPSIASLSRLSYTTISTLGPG
Cholecystokinin, CCK1 (CCKA), sequence (P32238 whole entry): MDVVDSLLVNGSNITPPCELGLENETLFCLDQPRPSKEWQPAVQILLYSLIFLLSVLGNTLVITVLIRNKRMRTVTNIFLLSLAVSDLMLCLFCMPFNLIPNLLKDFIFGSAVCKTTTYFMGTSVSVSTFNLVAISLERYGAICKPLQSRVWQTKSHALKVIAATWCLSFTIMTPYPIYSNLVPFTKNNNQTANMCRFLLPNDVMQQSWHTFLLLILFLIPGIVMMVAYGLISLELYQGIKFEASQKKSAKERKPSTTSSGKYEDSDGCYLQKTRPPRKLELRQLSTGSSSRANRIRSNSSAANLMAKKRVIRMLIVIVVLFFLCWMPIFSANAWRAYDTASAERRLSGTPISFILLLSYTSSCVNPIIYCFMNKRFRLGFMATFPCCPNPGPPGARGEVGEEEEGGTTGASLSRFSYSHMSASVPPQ
Neurokinin, NK1, sequence (P25103 whole entry): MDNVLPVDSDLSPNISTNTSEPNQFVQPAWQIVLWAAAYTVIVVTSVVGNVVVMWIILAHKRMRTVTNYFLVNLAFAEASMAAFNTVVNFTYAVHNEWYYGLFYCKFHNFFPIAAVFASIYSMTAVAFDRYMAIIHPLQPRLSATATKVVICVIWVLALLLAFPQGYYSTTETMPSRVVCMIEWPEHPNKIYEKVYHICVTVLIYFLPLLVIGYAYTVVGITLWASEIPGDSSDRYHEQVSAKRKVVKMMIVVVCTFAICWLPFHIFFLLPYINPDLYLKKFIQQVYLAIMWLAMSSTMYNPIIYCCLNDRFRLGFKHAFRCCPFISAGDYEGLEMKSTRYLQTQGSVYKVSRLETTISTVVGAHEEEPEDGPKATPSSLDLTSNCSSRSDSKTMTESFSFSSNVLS
Oxidase, MAO-B, Peripheral, sequence (P27338 whole entry): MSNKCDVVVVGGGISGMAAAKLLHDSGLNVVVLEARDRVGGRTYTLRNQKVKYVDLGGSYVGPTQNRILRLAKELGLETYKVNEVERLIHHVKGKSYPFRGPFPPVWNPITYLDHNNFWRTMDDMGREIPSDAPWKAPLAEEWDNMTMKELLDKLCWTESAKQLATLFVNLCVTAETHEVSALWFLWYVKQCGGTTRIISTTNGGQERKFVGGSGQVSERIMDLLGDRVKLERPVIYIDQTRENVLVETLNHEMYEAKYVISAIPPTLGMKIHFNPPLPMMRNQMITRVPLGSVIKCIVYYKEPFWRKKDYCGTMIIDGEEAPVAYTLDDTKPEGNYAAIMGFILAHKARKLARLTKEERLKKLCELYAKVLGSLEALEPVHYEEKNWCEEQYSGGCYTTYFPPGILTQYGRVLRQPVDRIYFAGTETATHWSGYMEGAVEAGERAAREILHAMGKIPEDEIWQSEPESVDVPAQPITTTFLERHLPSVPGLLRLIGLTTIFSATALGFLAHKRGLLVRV

SMILES | inhibition at 1 µM [1] [%] | percentage inhibition of specific binding [2] [%] | inhibition at 1 µM [3] [%] | percentage inhibition of specific binding [4] [% ^] | percentage inhibition of specific binding [5] [%] | percentage inhibition of specific binding [6] [%] | inhibition at 1 µM [7] [%] | inhibition at 1 µM [8] [%] | inhibition at 1 µM [9] [%] | percentage inhibition [10] [%] | inhibition of CYP 3A activity [11] | Group mean (=sd) number pf abdominal spasms recorded in a 25-minute period ([12]; oral 3 mg/kg) | Number of abdominal spasms recorded in a 25-minute period, individual animal data ([12]; oral 3 mg/kg, listed as HY-2901, 3 mg/kg) | Group mean (=sd) number pf abdominal spasms recorded in a 25-minute period ([12]; oral 10 mg/kg) | Number of abdominal spasms recorded in a 25-minute period, individual animal data ([12]; oral 10 mg/kg, listed as HY-2901, 10 mg/kg) | Group mean (=sd) number pf abdominal spasms recorded in a 25-minute period ([12]; oral 30 mg/kg) | Number of abdominal spasms recorded in a 25-minute period, individual animal data ([12]; oral 30 mg/kg, listed as HY-2901, 30 mg/kg) | half-life ([13]; plasma, rat, 3 mg/kg) [min] | Tmax ([13]; plasma, rat, 3 mg/kg, after oral administration) [min] | Peak plasma levels ([13]; rats, most efficacious dose of 3 mg/kg in the sleep assay)
CC(CC(=O)O)N1CCC(=C2c3ccc(F)cc3COc3ccccc32)CC1 (centres unmarked) [Compound 37] | 8.92 | 21.45 | 3.98 | −12.71 | −5.56 | 12.84 | 10.3 | 3.53 | 2.17 | 4.24 | – | – | – | – | – | – | – | – | – | –
CC(C)(CN1CCC(=C2c3ccc(F)cc3COc3ccccc32)CC1)C(=O)O [Compound 49a] | – | – | – | – | – | – | – | – | – | – | did not inhibit | 31 ± 9.0 | 42 and 17 and 26 and 29 and 31 and 39 | 25 ± 16.4 | 57 and 23 and 20 and 24 and 19 and 9 | 17 ± 13.8 | 37 and 20 and 23 and 1 (2×) and 18 | 66 | 15 | less than 1.5 mM
